# In publication PMC8704707 (Pharmaceuticals, 2021):
# Values joined by “and” are separate entries in the source; they are usually repeats but may differ in a detail not shown here. Equal values may be shown once. Read-outs that look alike come from different tables or passages of the source.
# How the values were obtained:
# [1] = molecular target: AChE from electric eel (EeAChE) (Electrophorus electricus, UniProt O42275); assay: biochemical; format: biochemical
# [2] = molecular target: BuChE from equine serum (EqBuChE) (Equus caballus, UniProt P81908); assay: biochemical
# [3] = tested on: Klebsiella pneumoniae ATCC 10031; details: for MIC KP 24 h: 24 h incubation; for MIC KP 48 h: 48 h incubation
# [4] = tested on: Acinetobacter baumannii ATCC 19606; assay: Antibacterial microdilution broth method (EUCAST); format: cell-based
# [5] = tested on: Staphylococcus epidermidis ATCC 12228; assay: Antibacterial microdilution broth method (EUCAST); format: cell-based
# [6] = tested on: Escherichia coli ATCC 25922; assay: Antibacterial microdilution broth method (EUCAST); format: cell-based
# [7] = tested on: Enterococcus faecalis ATCC 29212; assay: Antibacterial microdilution broth method (EUCAST); format: cell-based
# [8] = tested on: Staphylococcus aureus ATCC 29213; assay: Antibacterial microdilution broth method (EUCAST); format: cell-based
# [9] = tested on: Pseudomonas aeruginosa ATCC 27853; assay: Antibacterial microdilution broth method (EUCAST); format: cell-based
# [10] = tested on: methicillin-resistant Staphylococcus aureus ATCC 43300; assay: Antibacterial microdilution broth method (EUCAST); format: cell-based; details: ATCC 43300 / MRSA
# [11] = tested on: eight human pathogenic fungi; assay: Antifungal microdilution broth method, whole panel; format: cell-based; details: not reported in Table 2, read-out: MIC, all fungal strains tested
# [12] = tested on: four Gram-positive and four Gram-negative bacterial strains; assay: Antibacterial microdilution broth method, whole panel; format: cell-based; details: read-out: MIC, all bacterial strains tested
# [13] = tested on: Candida parapsilosis ATCC 22019; assay: microbe, parasite or virus in culture; format: cell-based; details: Lodderomyces parapsilosis
# [14] = tested on: Trichophyton interdigitale ATCC 9533; assay: microbe, parasite or virus in culture; format: cell-based
# [15] = tested on: Candida albicans ATCC 24443; assay: microbe, parasite or virus in culture; format: cell-based
# [16] = tested on: Candida tropicalis ATCC 750; assay: microbe, parasite or virus in culture; format: cell-based
# Candida krusei ATCC 6258 = assay: microbe, parasite or virus in culture; format: cell-based; details: Pichia kudriavzevii
# [17] = mean ± SD, n = three independent experiments, BTCh 40 µM, read-out: IC50 BuChE
# [18] = ATCC19606, 24 h, read-out: MIC ACI 24 h
# [19] = ATCC19606, 48 h, read-out: MIC ACI 48 h
# [20] = ATCC12228, 24 h, read-out: MIC SE 24 h
# [21] = ATCC12228, 48 h, read-out: MIC SE 48 h
# [22] = ATCC25922, 24 h, read-out: MIC EC 24 h
# [23] = ATCC25922, 48 h, read-out: MIC EC 48 h
# [24] = ATCC29212, 24 h, read-out: MIC EF 24 h
# [25] = ATCC29212, 48 h, read-out: MIC EF 48 h
# [26] = ATCC29213, 24 h, read-out: MIC SA 24 h
# [27] = ATCC29213, 48 h, read-out: MIC SA 48 h
# [28] = ATCC27853, 24 h, read-out: MIC PA 24 h
# [29] = ATCC27853, 48 h, read-out: MIC PA 48 h
# [30] = mean ± SD, n = three independent experiments, ATCh 40 µM, read-out: IC50 AChE
# [31] = ATCC22019, 24 h, read-out: MIC CP 24 h
# [32] = ATCC22019, 48 h, read-out: MIC CP 48 h
# [33] = ATCC9533, 72 h, read-out: MIC TI 72 h
# [34] = ATCC9533, 120 h, read-out: MIC TI 120 h
# [35] = ATCC24443, 24 h, read-out: MIC CA 24 h
# [36] = ATCC24443, 48 h, read-out: MIC CA 48 h
# [37] = ATCC750, 24 h, read-out: MIC CT 24 h
# [38] = ATCC750, 48 h, read-out: MIC CT 48 h
# [39] = ATCC6258, 24 h, read-out: MIC CK 24 h
# [40] = ATCC6258, 48 h, read-out: MIC CK 48 h
# Experimental for HepG2 cells: Cytotoxicity of the tested compounds was measured using the standard hepatic cell line HepG2. The used CellTiter 96® assay is based on the reduction of tetrazolium dye (MTS) in living cells to formazan, which is then determined colorimetrically.
# BuChE from equine serum (EqBuChE), sequence (P81908 whole entry): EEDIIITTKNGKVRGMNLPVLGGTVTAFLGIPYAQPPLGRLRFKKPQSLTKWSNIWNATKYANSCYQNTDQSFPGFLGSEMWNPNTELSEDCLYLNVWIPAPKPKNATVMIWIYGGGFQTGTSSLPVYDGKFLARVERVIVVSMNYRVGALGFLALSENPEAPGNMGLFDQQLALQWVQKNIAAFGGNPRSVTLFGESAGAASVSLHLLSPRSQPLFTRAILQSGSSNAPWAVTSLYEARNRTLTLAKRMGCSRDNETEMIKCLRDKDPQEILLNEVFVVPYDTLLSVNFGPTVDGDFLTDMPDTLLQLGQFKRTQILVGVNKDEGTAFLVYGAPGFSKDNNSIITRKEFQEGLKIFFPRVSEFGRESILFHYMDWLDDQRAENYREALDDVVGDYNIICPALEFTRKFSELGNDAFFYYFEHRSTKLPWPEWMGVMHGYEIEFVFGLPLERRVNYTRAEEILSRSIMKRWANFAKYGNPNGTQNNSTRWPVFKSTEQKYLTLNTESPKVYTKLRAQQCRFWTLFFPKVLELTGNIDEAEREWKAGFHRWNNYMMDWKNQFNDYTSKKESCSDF
# AChE from electric eel (EeAChE), sequence (O42275 24-633): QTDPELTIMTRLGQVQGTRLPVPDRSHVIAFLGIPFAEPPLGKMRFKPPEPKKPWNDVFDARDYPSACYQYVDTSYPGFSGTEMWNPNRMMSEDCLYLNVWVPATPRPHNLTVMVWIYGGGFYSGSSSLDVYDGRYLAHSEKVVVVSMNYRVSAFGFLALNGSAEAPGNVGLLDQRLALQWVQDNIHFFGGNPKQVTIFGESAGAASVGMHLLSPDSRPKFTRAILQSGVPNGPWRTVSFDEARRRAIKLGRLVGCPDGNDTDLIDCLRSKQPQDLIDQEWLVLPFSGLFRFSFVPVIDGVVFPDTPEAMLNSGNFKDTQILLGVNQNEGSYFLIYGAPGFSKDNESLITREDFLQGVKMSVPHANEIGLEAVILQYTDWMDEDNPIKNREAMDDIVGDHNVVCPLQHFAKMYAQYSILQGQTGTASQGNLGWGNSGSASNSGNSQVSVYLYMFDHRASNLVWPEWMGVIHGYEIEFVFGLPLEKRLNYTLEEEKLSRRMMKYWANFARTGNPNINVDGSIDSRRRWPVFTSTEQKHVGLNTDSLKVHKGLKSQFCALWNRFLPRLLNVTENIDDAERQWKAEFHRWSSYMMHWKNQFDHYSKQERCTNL
Structure (SMILES),Selectivity AChE/BuChE [1],"IC50 [2, 17]",MIC KP 24 h [3] [µM],MIC KP 48 h [3] [µM],"MIC [4, 18] [µM]","MIC [4, 19] [µM]","MIC [5, 20] [µM]","MIC [5, 21] [µM]","MIC [6, 22] [µM]","MIC [6, 23] [µM]","MIC [7, 24] [µM]","MIC [7, 25] [µM]","MIC [8, 26] [µM]","MIC [8, 27] [µM]","MIC [9, 28] [µM]","MIC [9, 29] [µM]","MIC ([10]; 24 h, read-out: MIC MRSA 24 h) [µM]","MIC ([10]; 48 h, read-out: MIC MRSA 48 h) [µM]",MIC [11] [µM],"IC50 [1, 30] [µM]",further results
"N=C(NN)NN [1,3-diaminoguanidine, reference compound]",0.15,283 ± 8.94 µM,,,,,,,,,,,,,,,,,,,IC50 [1]: 41.71 ± 0.23 µM; Cytotoxicity in HepG2 in words (HepG2 cells; range of tested concentrations up to 500 µM): no significant cytotoxicity
"[H]/N=C(\N)NN=Cc1ccccc1 [Compound 1a, (E)-2-Benzylidenehydrazine-1-carboximidamide]",0.81,,>500,>500,> 500,> 500,250,250,> 500,> 500,> 500,> 500,500,500,> 500,> 500,> 500,> 500,≥ 500,,IC50 [1]: 36.19 ± 0.1 µM; IC50 ([2]; IC50 BuChE): 44.9 ± 0.54 µM
"[H]/N=C(\N)NN=Cc1ccc(Cl)cc1 [Compound 1d, (E)-2-(4-Chlorobenzylidene)hydrazine-1-carboximidamide]",3.25,< 20 µM and 13.9 µM,,,,,,,,,,,,,,,,,,,IC50 [1]: 45.2 ± 1.6 µM; MIC [12]: ≥ 500 µM
"[H]/N=C(\N)NN=Cc1cccc(Cl)c1O [Compound 1e, (E)-2-(3-Chloro-2-hydroxybenzylidene)hydrazine-1-carboximidamide]",,< 20 µM and 5.57 µM,,,,,,,,,,,,,,,,,,46.2 ± 2.26,MIC [12]: ≥ 500 µM
"[H]/N=C(\N)NN=Cc1cc(Cl)cc(Cl)c1O [Compound 1j, (E)-2-(3,5-Dichloro-2-hydroxybenzylidene)hydrazine-1-carboximidamide]",0.66,61.7 ± 4.33 µM,500,500,500,500,250,250,500,500,250,250,250,250,250,250,250,250,≥ 500,40.8 ± 0.8,
"[H]/N=C(\N)NN=Cc1ccc([N+](=O)[O-])s1 [Compound 1o, (E)-2-[(5-Nitrothiophen-2-yl)methylene]hydrazine-1-carboximidamide]",0.11,204 to 286 µM and 286 µM,125,125,125,125,62.5,62.5,62.5,62.5,250,500,125,250,500,500,125,250,,31.7 ± 1.34,"MIC [13, 31]: > 500 µM; MIC [13, 32]: > 500 µM; MIC [14, 33]: 250 µM; MIC [14, 34]: 250 µM; MIC [15, 35]: > 500 µM; MIC [15, 36]: > 500 µM; MIC [16, 37]: > 500 µM; MIC [16, 38]: > 500 µM; MIC (Candida krusei ATCC 6258; [39]): 500 µM; MIC (Candida krusei ATCC 6258; [40]): 500 µM"
"[H]/N=C(\N)NN=Cc1cc(I)c(O)c(I)c1 [Compound 2b, (E)-2-(4-Hydroxy-3,5-diiodobenzylidene)hydrazine-1-carboximidamide]",0.87,46.28 ± 0.29 µM,250,250,> 500,> 500,250,500,500,500,500,500,500,500,> 500,> 500,500,500,≥ 500,40.3 ± 0.85,
"N=C(N)NNCc1cc(I)cc(I)c1O [Compound 2d, 2-(2-Hydroxy-3,5-diiodobenzyl)hydrazine-1-carboximidamide]",1.10,41.5 ± 1.45 µM,,,,,,,,,,,,,,,,,,45.7 ± 1.7,"MIC [12]: ≥ 500 µM; MIC [13, 31]: > 125 µM; MIC [13, 32]: > 125 µM; MIC [14, 33]: 62.5 µM; MIC [14, 34]: 62.5 µM; MIC [15, 35]: > 125 µM; MIC [15, 36]: > 125 µM; MIC [16, 37]: > 125 µM; MIC [16, 38]: > 125 µM; MIC (Candida krusei ATCC 6258; [39]): > 125 µM; MIC (Candida krusei ATCC 6258; [40]): > 125 µM"
"[H]/N=C(\NN=Cc1cc(I)cc(I)c1O)N[N+](=O)[O-] [Compound 2f, (E)-2-(2-Hydroxy-3,5-diiodobenzylidene)-N-nitrohydrazine-1-carboximidamide]",,> 500 µM,,,,,,,,,,,,,,,,,≥ 500,34.78 ± 0.04,MIC [12]: ≥ 500 µM
"N=C(N/N=C/c1cc(I)cc(I)c1O)N/N=C/c1cc(I)cc(I)c1O [Compound 2g, Bis[2-((E)-2-hydroxy-3,5-diiodobenzylidene)hydrazineyl]methaniminium chloride]",,,,,,,,,,,,,,,,,,,,,"IC50 [1]: 54.9 ± 1.72 µM; MIC [12]: ≥ 500 µM; MIC [13, 31]: > 500 µM; MIC [13, 32]: > 500 µM; MIC [14, 33]: 250 µM; MIC [14, 34]: 250 µM; MIC [15, 35]: > 500 µM; MIC [15, 36]: > 500 µM; IC50 ([2]; read-out: IC50 BuChE): 8.26 ± 0.21 µM; MIC [16, 37]: > 500 µM; MIC [16, 38]: > 500 µM; MIC (Candida krusei ATCC 6258; [39]): > 500 µM; MIC (Candida krusei ATCC 6258; [40]): > 500 µM"
"NC(=O)N/N=C/c1cc(I)cc(I)c1O [Compound 2h, (E)-2-(2-Hydroxy-3,5-diiodobenzylidene)hydrazine-1-carboxamide]",0.88,34.7 ± 0.35 µM,>500,>500,> 500,> 500,125,125,> 500,> 500,> 500,> 500,250,250,> 500,> 500,500,500,≥ 500,30.7 ± 0.33,
"NC(=S)N/N=C/c1cc(I)cc(I)c1O [Compound 2i, (E)-2-(2-Hydroxy-3,5-diiodobenzylidene)hydrazine-1-carbothioamide]",0.61,86.24 ± 0.39 µM,>500,>500,> 500,> 500,250,250,> 500,> 500,250,250,500,500,> 500,> 500,500,500,≥ 500,52.22 ± 0.4,
"N=C(N)NN [aminoguanidine, hydrazinecarboximidamide, reference compound]",0.23,,,,,,,,,,,,,,,,,,,,IC50 ([1]; read-out: IC50 AChE): 75.14 ± 0.74 µM; Cytotoxicity in HepG2 in words (HepG2 cells): no significant cytotoxicity; IC50 ([2]; read-out: IC50 BuChE): 327 ± 18 µM
"NNC(N)=O [semicarbazide, reference compound]",0.13,,,,,,,,,,,,,,,,,,,,IC50 ([1]; read-out: IC50 AChE): 48.1 ± 0.84 µM; Cytotoxicity in HepG2 in words (HepG2 cells): no significant cytotoxicity; IC50 ([2]; read-out: IC50 BuChE): 365 ± 16.8 µM
"NNC(N)=S [thiosemicarbazide, reference compound]",0.14,,,,,,,,,,,,,,,,,,,,IC50 ([1]; read-out: IC50 AChE): 46.1 ± 1.1 µM; Cytotoxicity in HepG2 in words (HepG2 cells): no significant cytotoxicity; IC50 ([2]; read-out: IC50 BuChE): 327.8 ± 3.22 µM
